Here are results for 1 molecule from PMC7472354, “Enhanced Antimicrobial Activity of N-Terminal Derivatives of a Novel Brevinin-1 Peptide from The Skin Secretion of Odorrana schmackeri” (Toxins, 2020).

The test system of one data set is horse red blood cells. Kind of data set: Haemolysis assay and therapeutic index. The following applies: 2% horse red blood cells in PBS, 2 h, 37 °C, absorbance 570 nm; best-fitted curve.
Data set [1] deals with Staphylococcus aureus (NCTC 10788). Format: cell-based. Here is the method:
(§1) The minimal inhibitory concentrations (MICs) and minimum bactericidal concentrations (MBCs) were evaluated to determine the antimicrobial activity of synthetic peptides. The microorganisms employed in the study are two kinds of Gram-negative bacteria, Escherichia coli (NCTC 10418) and Pseudomonas aeruginosa (ATCC 27853), three kinds of Gram-positive bacteria, Staphylococcus aureus (NCTC 10788), Methicillin-resistant Staphylococcus aureus (MRSA, ATCC 12493) and Enterococcus faecalis (NCTC 12697) and a yeast, Candida albicans (NCPF 1467), as indicated previously. […] The sterilised broth medium was used as the positive control and the microorganism cultured in the medium only was treated as the negative control. […] The MBC results were defined as the lowest bactericidal concentrations of peptide. The antimicrobial activity of peptides was tested by monitoring the absorbance at 550 nm using an ELISA plate reader (Biolise BioTek EL808, Winooski, VT, USA).

Data set [2] deals with Escherichia coli (NCTC 10418). Format: cell-based. As to the method: as §1
The test system of data set [3] is Methicillin-resistant Staphylococcus aureus (MRSA, ATCC 12493). Format: cell-based. As to the method: as §1
Data set [4] relates to Enterococcus faecalis (NCTC 12697). Format: cell-based. As to the method: as §1
In data set [5] the test system is Pseudomonas aeruginosa (ATCC 27853). The data set is classed as cell-based. Here is the method: as §1
Data set [6] has as its system Candida albicans (NCPF 1467). Format: cell-based. Here is the method: as §1

Structures are written as SMILES. ≈ marks a conversion by molar mass, not a printed value. Where a SMILES comes first, the peptide text is derived from it. A value given as a limit tells only on which side of the number the result lay.

Description for horse red blood cells: The haemolytic activity of synthetic peptides was determined using the horse red blood cells that were extracted from the de-fibroblast whole horse blood (TCS Biosciences Ltd. Buckingham, UK). […] Briefly, the red blood cells were harvested and washed using PBS until all broken red blood cells were removed. Then, a 2% cell suspension was prepared using PBS. The peptide concentrations were set as antimicrobial activity assay and mixed with the red blood cells in the microcentrifuge tubes. After a 2 h-incubation at 37 °C, the tubes were centrifuged and the suspension was transferred into a clear 96 well plate. The absorbance of released haemoglobin in the suspension was detected at 570 nm by a plate reader. Besides, the red blood cells treated with PBS and 1% Triton X-100 were used as the negative and positive controls, respectively. […] The therapeutic index (TI) was further determined as below:(1) TI=HC50/product of n MICsn,

What is called MIC is the smallest concentration in the dilution series that meets the test's criterion for growth inhibition. A high value points to weaker potency. For `CC[C@H](C)[C@H](NC(=O)CNC(=O)[C@@H]1CCCN1C(=O)[C@H](CC(C)C)NC(=O)[C@@H](N)Cc1ccccc1)C(=O)N[C@@H](CC(C)C)C(=O)N[C@@H](CCCCN)C(=O)N[C@H](C(=O)N[C@@H](C)C(=O)N[C@@H](C)C(=O)N[C@@H](CCCCN)C(N)=O)C(C)C` [OSb] (H-FLPGILKVAAK-NH2), in the data set with horse red blood cells, the “HC50 (concentration causing 50% haemolysis of the red blood cells)” value is given as 381.4 µM. Also, the MBC is > 512 µM in data set [1] (NCTC 10788, 18 h); > 512 µM in data set [2] (NCTC 10418, 18 h); > 512 µM in data set [3] (ATCC 12493, 18 h); > 512 µM in data set [4] (NCTC 12697, 18 h); > 512 µM in data set [5] (ATCC 27853, 18 h); > 512 µM in data set [6] (NCPF 1467, 18 h). For the same molecule, the MIC in data set [1] (NCTC 10788, 24 h) is 256 µM (≈ 296 µg/mL); in data set [2] (NCTC 10418, 24 h), > 512 µM; in data set [3] (ATCC 12493, 24 h), > 512 µM; in data set [4] (NCTC 12697, 24 h), > 512 µM; in data set [5] (ATCC 27853, 24 h), > 512 µM; in data set [6] (NCPF 1467, 24 h) it was 512 µM (≈ 592 µg/mL).
